From patent US20220144823A1, “PYRAZOLOPYRIDINE DERIVATIVES AS INHIBITORS OF PASK” (Galapagos NV, priority 2019, published 2022)

How the values were obtained:
human PASK [1] = target: T1, human PASK (Homo sapiens, UniProt Q96RG2); experiment: 33P radioactive kinase assay; format: biochemical; settings: 33P radioactive PASK kinase assay, 10 μM ATP, ZIPtide 1 μM
T1 construct: purchased ThermoFisher Scientific PR7013A
Description: The principle of the ^33P radioactive kinase assay consists in measuring the incorporated ^33P into the ZIPtide peptide substrate when phosphorylated by human PASK using [^33P]-[…]-ATP and ATP, which correlates with kinase activity.
The test compounds are prepared as a serial dilution of 10 point dose responses with 1/5 dilution steps in 100% DMSO starting from 0.2 or 2 mM highest concentration, diluted 1/20 in water and 5 μL is transferred to the assay plates (Greiner, Cat #651201).
1% DMSO and 10 μM staurosporine final concentrations are used respectively as negative and positive controls.
11 μL of enzyme-substrate mixture is added on the assay plates. The reactions are started by adding 9 μL ATP mixture, consisting of non-labeled and ^33P-labeled ATP, on the assay plates.
The reactions are stopped by adding 25 μL phosphoric acid (150 mM) to the reactions.
The completely terminated kinase reactions are transferred using a harvester on pre-wetted UniFilter-96 plates (UniFilter-96 GF/B, PerkinElmer Inc., Cat #6005177).
After harvesting the kinase reactions, the filter plates are washed 6 times with phosphoric acid (75 mM). The back of the UniFilter-96 plates are sealed and 40 μL MicroScint-20 (PerkinElmer Inc., Cat #6013621) is added to each well. The top of each plate is sealed with TopSeal-A (PerkinElmer Inc., Cat #6050185). Read-out is performed with a TopCount instrument (PerkinElmer Inc.).
Raw data are generated following the read-out performed on the TopCount, used to calculate percentage inhibition (PIN) values and plotted to generate dose response curves and derive the average half maximal inhibitory concentrations (IC50) reported in Table VI.

human PASK [2] = target: T1, human PASK; experiment: ADP-Glo kinase assay; format: biochemical; settings: ADPGlo PASK kinase assay, 25 μM ATP, ZIPtide 25 μM
Summary of the method: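 Human recombinant PASK phosphorylating ZIPtide peptide with ATP, 120 min at RT; compounds in 10-point 1/5 dilution series, 1% DMSO final. ADP formed measured by ADP-Glo luminescence after ATP depletion; percent inhibition fitted to dose-response curves for averaged IC50.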

[3] = target: T2, autophosphorylation of PASK at position Thr307 in Hek293 cells overexpressing PASK (Homo sapiens, UniProt Q96RG2); experiment: PASK autophosphorylation ELISA assay; format: cell-based; settings: 24 h, ELISA readout
T2 construct: expressed in transfected cells; host or cells: Hek293
T2 sequence (Q96RG2 with tags, fused parts or gaps): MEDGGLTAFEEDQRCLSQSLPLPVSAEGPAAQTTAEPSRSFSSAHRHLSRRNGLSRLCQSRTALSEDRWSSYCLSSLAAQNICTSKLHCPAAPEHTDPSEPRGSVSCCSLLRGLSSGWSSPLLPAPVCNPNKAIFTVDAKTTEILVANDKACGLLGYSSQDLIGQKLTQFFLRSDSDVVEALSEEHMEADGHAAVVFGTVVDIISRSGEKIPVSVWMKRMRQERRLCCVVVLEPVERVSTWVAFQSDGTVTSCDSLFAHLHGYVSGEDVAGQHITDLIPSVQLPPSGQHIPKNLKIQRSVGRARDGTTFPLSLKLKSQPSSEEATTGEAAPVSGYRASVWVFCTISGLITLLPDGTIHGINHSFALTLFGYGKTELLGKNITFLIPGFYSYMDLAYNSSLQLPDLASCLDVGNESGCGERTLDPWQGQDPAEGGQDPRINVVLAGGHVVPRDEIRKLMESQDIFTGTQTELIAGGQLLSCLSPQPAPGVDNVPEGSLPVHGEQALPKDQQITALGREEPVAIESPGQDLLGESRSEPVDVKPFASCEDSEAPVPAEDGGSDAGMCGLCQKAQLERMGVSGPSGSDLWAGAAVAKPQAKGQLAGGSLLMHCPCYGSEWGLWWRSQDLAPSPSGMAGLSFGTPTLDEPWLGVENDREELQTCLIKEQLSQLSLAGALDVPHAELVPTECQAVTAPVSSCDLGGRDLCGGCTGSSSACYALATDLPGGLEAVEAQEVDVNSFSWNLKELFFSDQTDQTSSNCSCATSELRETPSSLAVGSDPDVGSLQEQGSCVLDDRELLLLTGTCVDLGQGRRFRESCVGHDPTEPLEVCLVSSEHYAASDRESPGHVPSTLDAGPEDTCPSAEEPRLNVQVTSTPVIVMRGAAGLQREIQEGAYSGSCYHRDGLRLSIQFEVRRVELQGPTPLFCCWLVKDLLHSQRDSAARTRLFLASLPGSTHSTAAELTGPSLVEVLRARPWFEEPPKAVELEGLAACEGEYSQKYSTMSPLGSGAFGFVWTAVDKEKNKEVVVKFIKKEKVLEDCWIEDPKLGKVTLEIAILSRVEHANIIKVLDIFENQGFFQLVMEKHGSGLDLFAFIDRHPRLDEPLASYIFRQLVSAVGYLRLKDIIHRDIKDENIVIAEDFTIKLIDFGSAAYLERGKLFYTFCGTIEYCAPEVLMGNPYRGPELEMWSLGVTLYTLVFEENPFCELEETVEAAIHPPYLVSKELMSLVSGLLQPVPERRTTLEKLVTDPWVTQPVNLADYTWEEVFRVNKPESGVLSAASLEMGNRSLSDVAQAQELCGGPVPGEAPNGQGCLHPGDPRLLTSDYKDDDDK
Description: The compounds of the invention are profiled in a cellular assay to determine their capacity to reduce the autophosphorylation levels of PASK at position Thr307 in Hek293 cells overexpressing PASK, using an ELISA-based readout.
At day 1, a 96-well cell assay plate is coated with poly-D-lysine (50 μL/well of a 0.05 mg/mL solution in PBS) and incubated for 1 h at 37° C. The plate is subsequently washed once with PBS and stored dry at RT until further use. Hek293 cells are transfected with a pcDNA3.1-PASK(FL,WT)-FLAG construct (SEQ ID1) and seeded in culture medium (DMEM+10% FBS) in a poly-D-lysine coated 96-well plate (0.3 μL JetPEI DNA transfection reagent (Polyplus-transfection SA, Cat #101-40), 10 ng construct and 90 ng pBluescript, 60000 cells per well). […] The cell plate is incubated overnight at 37° C., 5% CO2.
At day 2, the medium of the assay plate is removed and 100 μL of fresh medium (DMEM+10% FBS) is added to the plate. Cell plate is further incubated overnight at 37° C., 5% CO2. This to allow further expression of PASK protein.
At day 3, the medium is removed and replaced with 100 μL of serum free medium (DMEM). Test compound is added to the plate (8 points concentration curve with 1/3 dilution steps starting from 30 μM final concentration in 0.3% DMSO final). In the positive and negative control wells of the plate, 0.3% DMSO final is added. For each tested condition, duplicates are made for ELISA readout. Cell plate is incubated 24 h at 37° C., 5% CO2.
At day 4, the medium is removed and the plate is washed once with 100 μL/well PBS. Cells are lysed by adding 50 μL/well western blot lysis buffer (20 mM Tris pH 7.5, 150 mM NaCl and 1% Triton) to the plate. The assay plate is stored at −80° C. and thawed to perform the ELISA readout.
At day 1, the ELISA plate is coated with the mouse anti-FLAG antibody (2 μg/mL diluted in PBS, 100 μL/well) and incubated overnight at 4° C.
At day 2, the plate is washed once with 150 μL/well PBS. 200 μL/well blocking buffer (PBS with 3% BSA) is added and the plate is incubated for 4 h at RT. The plate is washed with 150 μL/well high salt washing buffer (20 mM Na2HPO4, 0.5% Triton X-100, 0.1% SDS, 0.1% BSA and 1 M NaCl) followed by one wash with 150 μL/well low salt washing buffer (20 mM Na2HPO4, 0.5% Triton X-100, 0.1% SDS, 0.1% BSA and 150 mM NaCl). Meanwhile, the cell lysate plate is thawed, two wells of the same condition are pooled (2×50 μL) and added to the ELISA plate. The ELISA plate is incubated overnight at 4° C.
At day 3, the ELISA plate is washed twice with 150 μL/well high salt washing buffer followed by two washes with low salt washing buffer. 100 μL/well detection antibody for pPASK (phospho-Akt substrate (RXXS*/T*) (110B7E) rabbit antibody (Cell Signaling Technology, Inc., Cat #9614) 2 μg/mL diluted in PBS with 3% BSA and 1×Halt™ protease and phosphatase inhibitor cocktail (Thermo Fisher Scientific, Inc., Cat #78447)) is added and incubated for 2 h at RT. The plate is washed twice with high and low salt wash buffer (150 μL/well) and 100 μL/well of an HRP antibody (swine anti-rabbit HRP antibody (Agilent Technologies, Inc., Cat #P039901) diluted 1/2000 in PBS with 3% BSA and 1×Halt™ protease and phosphatase inhibitor cocktail) is added to the plate, followed by an incubation for 1 h at RT in the dark (plate sealed with aluminum seal). The plate is washed twice with high and low salt wash buffer (150 μL/well) and 100 μL/well of SuperSignal™ ELISA Pico Chemiluminescent Substrate (Thermo Fisher Scientific, Inc., Cat #37070)(premix part 1 and part 2, 1/1) is added. The plate is incubated for 4 min at RT before measuring luminescence on the Luminoskan™ Ascent (Thermo Fisher Scientific, Inc.) (PMT default voltage; 100 ms integration time). […]

T1 sequence (Q96RG2 whole entry): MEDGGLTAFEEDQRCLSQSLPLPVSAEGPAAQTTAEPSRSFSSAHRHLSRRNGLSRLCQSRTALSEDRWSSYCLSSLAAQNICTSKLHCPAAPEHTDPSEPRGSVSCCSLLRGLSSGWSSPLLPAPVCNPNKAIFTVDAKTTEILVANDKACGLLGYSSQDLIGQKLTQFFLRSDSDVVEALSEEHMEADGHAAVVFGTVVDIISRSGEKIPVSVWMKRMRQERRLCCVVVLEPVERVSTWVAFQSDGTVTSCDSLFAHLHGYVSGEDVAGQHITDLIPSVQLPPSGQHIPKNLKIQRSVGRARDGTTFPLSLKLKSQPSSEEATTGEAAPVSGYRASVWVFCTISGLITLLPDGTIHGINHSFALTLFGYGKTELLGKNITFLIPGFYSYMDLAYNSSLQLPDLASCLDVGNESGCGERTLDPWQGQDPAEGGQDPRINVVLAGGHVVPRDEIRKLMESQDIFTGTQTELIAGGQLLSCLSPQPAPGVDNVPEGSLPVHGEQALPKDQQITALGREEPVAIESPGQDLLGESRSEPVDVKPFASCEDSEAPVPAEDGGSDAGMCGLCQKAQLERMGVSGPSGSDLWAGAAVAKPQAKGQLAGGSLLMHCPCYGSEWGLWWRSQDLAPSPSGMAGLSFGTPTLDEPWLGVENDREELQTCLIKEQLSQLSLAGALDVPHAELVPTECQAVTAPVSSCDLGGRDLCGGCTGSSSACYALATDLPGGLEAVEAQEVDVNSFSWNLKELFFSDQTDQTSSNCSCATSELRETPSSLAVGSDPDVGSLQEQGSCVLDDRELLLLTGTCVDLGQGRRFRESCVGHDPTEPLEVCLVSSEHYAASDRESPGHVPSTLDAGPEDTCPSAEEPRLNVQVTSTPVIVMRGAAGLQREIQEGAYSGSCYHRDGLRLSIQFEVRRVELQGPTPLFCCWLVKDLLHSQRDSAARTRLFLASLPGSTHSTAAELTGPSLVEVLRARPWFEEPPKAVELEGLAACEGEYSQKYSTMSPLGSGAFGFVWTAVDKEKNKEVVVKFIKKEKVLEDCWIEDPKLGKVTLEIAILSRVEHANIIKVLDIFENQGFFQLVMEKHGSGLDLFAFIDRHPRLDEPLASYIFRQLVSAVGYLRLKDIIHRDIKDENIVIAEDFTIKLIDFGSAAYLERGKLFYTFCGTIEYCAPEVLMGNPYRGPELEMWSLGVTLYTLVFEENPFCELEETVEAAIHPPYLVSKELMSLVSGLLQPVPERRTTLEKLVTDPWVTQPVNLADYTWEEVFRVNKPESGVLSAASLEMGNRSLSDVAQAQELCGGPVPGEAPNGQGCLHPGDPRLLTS

| Compound | IC50 (human PASK [1]) [nM] | IC50 (human PASK [2]) [nM] | IC50 [3] [nM] |
| --- | --- | --- | --- |
| Cc1nn(C)c(C)c1-c1cnn2ccc(-c3cc(C(=O)O)co3)cc12 [Cpd 2, 5-[3-(1,3,5-trimethylpyrazol-4-yl)pyrazolo[1,5-a]pyridin-5-yl]furan-3-carboxylic acid] | 0.01 to 10 | 0.01 to 10 | 500 to 1000 |
| COc1nc(-c2ccn3ncc(-c4c(C)nn(C)c4C)c3c2)sc1C(=O)O [Cpd 8, 4-methoxy-2-[3-(1,3,5 trimethylpyrazol-4-yl)pyrazolo[1,5-a]pyridin-5-yl]thiazole-5-carboxylic acid] | 0.01 to 10 | 0.01 to 10 | > 5000 |
| CCOc1nc(-c2ccn3ncc(-c4c(C)nn(C)c4C)c3c2)sc1C(=O)O [Cpd 9, 4-ethoxy-2-[3-(1,3,5-trimethylpyrazol-4-yl)pyrazolo[1,5-a]pyridin-5-yl]thiazole-5-carboxylic acid] | 0.01 to 10 | 0.01 to 10 | 500 to 1000 |
| Cc1c(-c2cnn3ccc(-c4cc(C(=O)O)co4)cc23)c(C(F)(F)F)nn1C [Cpd 23, 5-[3-[1,5-dimethyl-3-(trifluoromethyl)pyrazol-4-yl]pyrazolo[1,5-a]pyridin-5-yl]furan-3-carboxylic acid] | 0.01 to 10 | – | 0.1 to 500 |
| CCn1nc(C)c(-c2cnn3ccc(-c4cc(C(=O)O)co4)cc23)c1C [Cpd 28, 5-[3-(1-ethyl-3,5-dimethyl-pyrazol-4-yl)pyrazolo[1,5-a]pyridin-5-yl]furan-3-carboxylic acid] | 0.01 to 10 | 0.01 to 10 | 500 to 1000 |
| Cc1noc(C)c1-c1cnn2ccc(-c3cc(C(=O)O)c(C4CC4)o3)cc12 [Cpd 32, 2-cyclopropyl-5-[3-(3,5-dimethylisoxazol-4-yl)pyrazolo[1,5-a]pyridin-5-yl]furan-3-carboxylic acid] | 0.01 to 10 | 0.01 to 10 | 1000 to 5000 |
| Cc1nn(C(F)F)c(C)c1-c1cnn2ccc(-c3cc(C(=O)O)co3)cc12 [Cpd 35, 5-[3-[1-(difluoromethyl)-3,5-dimethyl-pyrazol-4-yl]pyrazolo[1,5-a]pyridin-5-yl]furan-3-carboxylic acid] | 0.01 to 10 | 0.01 to 10 | 1000 to 5000 |
| CCn1nc(C)c(-c2cnn3ccc(-c4nc(C5CC5)c(C(=O)O)s4)cc23)c1C [Cpd 38, 4-cyclopropyl-2-[3-(1-ethyl-3,5-dimethyl-pyrazol-4-yl)pyrazolo[1,5-a]pyridin-5-yl]thiazole-5-carboxylic acid] | 0.01 to 10 | 0.01 to 10 | 0.1 to 500 |
| Cc1c(-c2cnn3ccc(-n4cc(C(=O)O)cn4)cc23)c(C(F)(F)F)nn1C(C)C [Cpd 76, 1-[3-[1-isopropyl-5-methyl-3-(trifluoromethyl)pyrazol-4-yl]pyrazolo[1,5-a]pyridin-5-yl]pyrazole-4-carboxylic acid] | – | 0.01 to 10 | 1000 to 5000 |
| COc1nc(-c2ccn3ncc(-c4c(C)nn(CC(F)(F)F)c4C)c3c2)sc1C(=O)O [Cpd 77, 2-[3-[3,5-dimethyl-1-(2,2,2-trifluoroethyl)pyrazol-4-yl]pyrazolo[1,5-a]pyridin-5-yl]-4-methoxy-thiazole-5-carboxylic acid] | – | 0.01 to 10 | > 5000 |
| COc1nn(-c2ccn3ncc(-c4c(C(F)(F)F)nn(C)c4C)c3c2)cc1C(=O)O [Cpd 78, 1-[3-[1,5-dimethyl-3-(trifluoromethyl)pyrazol-4-yl]pyrazolo[1,5-a]pyridin-5-yl]-3-methoxy-pyrazole-4-carboxylic acid] | – | 0.01 to 10 | 1000 to 5000 |
| COc1nc(-c2ccn3ncc(-c4c(C)nn(C(F)F)c4C)c3c2)sc1C(=O)O [Cpd 79, 2-[3-[1-(difluoromethyl)-3,5-dimethyl-pyrazol-4-yl]pyrazolo[1,5-a]pyridin-5-yl]-4-methoxy-thiazole-5-carboxylic acid] | – | 0.01 to 10 | > 5000 |
| CCn1nc(C)c(-c2cnn3ccc(-n4cc(C(N)=O)c(OC)n4)cc23)c1C [Cpd 82, 1-[3-(1-ethyl-3,5-dimethyl-pyrazol-4-yl)pyrazolo[1,5-a]pyridin-5-yl]-3-methoxy-pyrazole-4-carboxamide] | – | 0.01 to 10 | > 5000 |
| CCn1nc(C)c(-c2cnn3ccc(-c4nc(OC)c(C(=O)O)s4)cc23)c1C [Cpd 84, 2-[3-(1-ethyl-3,5-dimethyl-pyrazol-4-yl)pyrazolo[1,5-a]pyridin-5-yl]-4-methoxy-thiazole-5-carboxylic acid] | – | 0.01 to 10 | 1000 to 5000 |
| COc1nc(-c2ccn3ncc(-c4c(C)nn(C(C)C(F)(F)F)c4C)c3c2)sc1C(=O)O (stereo not shown) [Cpd 85, 2-[3-[3,5-dimethyl-1-(2,2,2-trifluoro-1-methyl-ethyl)pyrazol-4-yl]pyrazolo[1,5-a]pyridin-5-yl]-4-methoxy-thiazole-5-carboxylic acid] | – | 0.01 to 10 | 1000 to 5000 |
| Cc1nn(C)c(C)c1-c1cnn2ccc(-c3nc(C4CC4)c(C(=O)O)s3)cc12 [Cpd 86, 4-cyclopropyl-2-[3-(1,3,5-trimethylpyrazol-4-yl)pyrazolo[1,5-a]pyridin-5-yl]thiazole-5-carboxylic acid] | – | 0.01 to 10 | 0.1 to 500 |
| COc1nc(-c2ccn3ncc(-c4c(C(F)(F)F)nn(C)c4C)c3c2)sc1C(=O)O [Cpd 89, 2-[3-[1,5-dimethyl-3-(trifluoromethyl)pyrazol-4-yl]pyrazolo[1,5-a]pyridin-5-yl]-4-methoxy-thiazole-5-carboxylic acid] | – | 0.01 to 10 | 1000 to 5000 |
| Cc1nn(C)c(C)c1-c1cnn2ccc(-c3nc(OCC(F)(F)F)c(C(=O)O)s3)cc12 [Cpd 90, 4-(2,2,2-trifluoroethoxy)-2-[3-(1,3,5-trimethylpyrazol-4-yl)pyrazolo[1,5-a]pyridin-5-yl]thiazole-5-carboxylic acid] | – | 0.01 to 10 | 500 to 1000 |
